For orientation: melting point means the temperature, or range, at which the solid turns liquid. `CN(C)S(=O)(=O)N=C(NCCF)N1CC(c2ccccc2)C(c2ccc(Cl)cc2)=N1` (centres unmarked) [Example 32, 3-(4-Chlorophenyl)-N′-((dimethylamino)sulfonyl)-N-(2-fluoroethyl)-4-phenyl-4,5-dihydro-1H-pyrazole-1-carboxamidine]: the melting point lay within 128 to 131 °C.

For `CNC(=NS(=O)(=O)N(C)C)N1CC(c2ccccc2F)C(c2ccc(Cl)cc2)=N1` (centres unmarked) [Example 84, 3-(4-Chlorophenyl)-N′-((dimethylamino)sulfonyl)-4-(2-fluorophenyl)-N-methyl-4,5-dihydro-1H-pyrazole-1-carboxamidine], the melting point lay in the range of 173 to 175 °C. To `CCN(CC)S(=O)(=O)N=C(NCCO)N1CC(c2ccccc2)C(c2ccc(Cl)cc2)=N1` (centres unmarked) [Example 3, 3-(4-Chlorophenyl)-N′-((diethylamino)sulfonyl)-N-(2-hydroxyethyl)-4-phenyl-4,5-dihydro-1H-pyrazole-1-carboxamidine] belongs 104 to 106 °C; to `CSC(=NS(=O)(=O)N1CCCCC1)N1CC(c2cccnc2)C(c2ccc(Cl)cc2)=N1` (centres unmarked) [Example 45, 3-(4-Chlorophenyl)-N-((piperidin-1-yl)sulfonyl)-4-(pyridin-3-yl)-4,5-dihydro-1H-pyrazole-1-carboximidothioic acid methyl ester], 182 to 185 °C; to `CONC(=NS(=O)(=O)N(C)C)N1CC(c2ccccc2)C(c2ccc(Cl)cc2)=N1` (centres unmarked) [Example 34, 3-(4-Chlorophenyl)-N′-((dimethylamino)sulfonyl)-N-methoxy-4-phenyl-4,5-dihydro-1H-pyrazole-1-carboxamidine], 170 to 172 °C.

The compound `CNC(=NS(=O)(=O)N(C)C)N1CC(c2cccnc2)C(c2ccc(Cl)cc2)=N1` (centres unmarked) [Example 72, 3-(4-Chlorophenyl)-N′-((dimethylamino)sulfonyl)-N-methyl-4-(pyridin-3-yl)-4,5-dihydro-1H-pyrazole-1-carboxamidine] registered a melting point of 157 to 159 °C. Take `CCN(c1ccccc1)S(=O)(=O)N=C(NC)N1CC(c2ccccc2)C(c2ccc(Cl)cc2)=N1` (centres unmarked): the melting point was in the range of 145 to 147 °C. For the compound `CCN(CC)S(=O)(=O)N=C(NC)N1CC(O)(c2ccccc2)C(c2ccc(Cl)cc2)=N1` (centres unmarked) [Example 57, 3-(4-Chlorophenyl)-N′-((diethylamino)sulfonyl)-N-methyl-4-hydroxy-4-phenyl-4,5-dihydro-1H-pyrazole-1-carboxamidine], the melting point fell in the range of 180 to 182 °C. Take `CNC(=NS(=O)(=O)N(C)C)N1CC(c2ccncc2)C(c2ccc(Cl)cc2)=N1` (centres unmarked) [Example 74, 3-(4-Chlorophenyl)-N′-((dimethylamino)sulfonyl)-N-methyl-4-(pyridin-4-yl)-4,5-dihydro-1H-pyrazole-1-carboxamidine]: the melting point was in the range of 178 to 182 °C.

As for `CSC(=NS(=O)(=O)N(C)C)N1CC(c2ccccc2)C(c2ccc(Cl)cc2)=N1` (centres unmarked) [Example 36, 3-(4-Chlorophenyl)-N-((dimethylamino)sulfonyl)-4-phenyl-4,5-dihydro-1H-pyrazole-1-carboximidothioic acid methyl ester], the melting point fell in the range of 159 to 160 °C. For `CCN(CC)S(=O)(=O)N=C(NC1CC1)N1CC(c2ccccc2)C(c2ccc(Cl)cc2)=N1` (centres unmarked), the melting point is 150 to 151 °C. Consider `O=S(=O)(N=C(NC1CC1)N1CC(c2ccccc2)C(c2ccc(Cl)cc2)=N1)N1CCCCC1` (centres unmarked) [Example 56, 3-(4-Chlorophenyl)-N-cyclopropyl-4-phenyl-N′-((piperidin-1-yl)sulfonyl)-4,5-dihydro-1H-pyrazole-1-carboxamidine], for which the melting point was in the range of 142 to 144 °C. To `CCCNC(=NS(=O)(=O)N(C)C)N1CC(c2ccccc2)C(c2ccc(Cl)cc2)=N1` (centres unmarked) [Example 31, 3-(4-Chlorophenyl)-N′-((dimethylamino)sulfonyl)-N-propyl-4-phenyl-4,5-dihydro-1H-pyrazole-1-carboxamidine] belongs 127 to 129 °C; to `CNC(=NS(=O)(=O)N(C)C)N1CC(c2cccc(F)c2)C(c2ccc(Cl)cc2)=N1` (centres unmarked) [Example 85, 3-(4-Chlorophenyl)-N′-((dimethylamino)sulfonyl)-4-(3-fluorophenyl)-N-methyl-4,5-dihydro-1H-pyrazole-1-carboxamidine], 110 °C. To `CSC(=NS(=O)(=O)N1CCOCC1)N1CC(c2c(F)cccc2F)C(c2ccc(Cl)cc2)=N1` (centres unmarked) [Example 50, 3-(4-Chlorophenyl)-4-(2,6-difluorophenyl)-N-((morpholin-4-yl)sulfonyl)-4,5-dihydro-1H-pyrazole-1-carboximidothioic acid methyl ester] belongs 231 to 233 °C. For `CSC(=NS(=O)(=O)N1CCCCC1)N1CC(c2c(F)cccc2F)C(c2ccc(Cl)cc2)=N1` (centres unmarked) [Example 51, 3-(4-Chlorophenyl)-4-(2,6-difluorophenyl)-N-((piperidin-1-yl)sulfonyl)-4,5-dihydro-1H-pyrazole-1-carboximidothioic acid methyl ester], the melting point was 221 to 225 °C. `CSC(=NS(=O)(=O)N1CCC(N2CCCCC2)CC1)N1CC(c2ccccc2)C(c2ccc(Cl)cc2)=N1` (centres unmarked) [Example 97, 3-(4-Chlorophenyl)-N-(([1,4′]bipiperidin-1′-yl)sulfonyl)-4-phenyl-4,5-dihydro-1H-pyrazole-1-carboximidothioic acid methyl ester] yielded a melting point of 245 °C. Compound `CC(C)NC(=NS(=O)(=O)N(C)C)N1CC(c2ccccc2)C(c2ccc(Cl)cc2)=N1` (centres unmarked) [Example 59, 3-(4-Chlorophenyl)-N′-((dimethylamino)sulfonyl)-N-isopropyl-4-phenyl-4,5-dihydro-1H-pyrazole-1-carboxamidine] registered a melting point of 169 to 170 °C. `CN1CCC(NC(=NS(=O)(=O)N(C)C)N2CC(c3ccccc3)C(c3ccc(Cl)cc3)=N2)CC1` (centres unmarked) [Example 60, 3-(4-Chlorophenyl)-N′-((dimethylamino)sulfonyl)-N-(1-methylpiperidin-4-yl)-4-phenyl-4,5-dihydro-1H-pyrazole-1-carboxamidine] had a melting point of 144 to 146 °C.

For the compound `CCN(CC)S(=O)(=O)N=C(SC)N1CC(c2ccccc2)C(c2ccc(Cl)cc2)=N1` (centres unmarked) [Example 37, 3-(4-Chlorophenyl)-N-((diethylamino)sulfonyl)-4-phenyl-4,5-dihydro-1H-pyrazole-1-carboximidothioic acid methyl ester], the melting point was 141 to 143 °C. Compound `CCN(CC)S(=O)(=O)N=C(N(C)C)N1CC(c2ccccc2)C(c2ccc(F)cc2)=N1` (centres unmarked) [Example 64, N′-((Diethylamino)sulfonyl)-N,N-dimethyl-3-(4-fluorophenyl)-4-phenyl-4,5-dihydro-1H-pyrazole-1-carboxamidine] yielded a melting point of 159 to 160 °C. In turn, `CCN(C)S(=O)(=O)N=C(NC)N1CC(c2cccnc2)C(c2ccc(Cl)cc2)=N1` (centres unmarked) yielded a melting point of 125 to 128 °C.

On to `CCCN(CCC)S(=O)(=O)N=C(NC)N1CC(c2ccccc2)C(c2ccc(Cl)cc2)=N1` (centres unmarked) [Example 26, 3-(4-Chlorophenyl)-N′-((dipropylamino)sulfonyl)-N-methyl-4-phenyl-4,5-dihydro-1H-pyrazole-1-carboxamidine], for which the melting point is 141 to 142 °C.
